According to patent US12195427B2, “MASP-2 inhibitors and methods of use” (priority 2018, dated 2025):

Legend:
MASP-2 (CCP1-CCP2-SP) = MASP-2 (CCP1-CCP2-SP) (Homo sapiens (Human), UniProt O00187); experiment: Enzymatic Assay for MASP-2 (fluorogenic substrate); format: biochemical
MASP-2 CCP2-SP = MASP-2 CCP2-SP (Homo sapiens (Human), UniProt O00187); experiment: MASP-2 co-crystallization, X-ray crystallography and structure analysis (H-bonds, van der Waals contacts); parameters: van der Waals contact distance, MASP-2 HIS 483 atom CD2 / van der Waals contact distance, MASP-2 HIS 483 atom NE2 / van der Waals contact distance, SER 654 C to compound atom / van der Waals contact distance, SER 654 O to compound atom / van der Waals contact distance, TRP 655 C to compound atom / van der Waals contact distance, MASP-2 GLY 528 atom CA / van der Waals contact distance TRP 655 atom CZ3 / van der Waals contact distance TRP 655 atom N / van der Waals contact distance TRP 655 atom CE3 / van der Waals contact distance GLY 656 atom C / van der Waals contact distance GLY 656 atom CA / van der Waals contact distance GLY 656 atom O / van der Waals contact distance, MASP-2 TYR 607 atom CD1 / van der Waals contact distance, MASP-2 PRO 606 atom O / d(C3,CA1) / d(CA1,N1)2 / d(H4,O1) / d(H4,O2) / d(O1,O2) / d(CA1,O2) / d(CA6,O1) / d(CA6,O2) / d(CA1,C5) / d(O2,H3) / d(N2,C2) / d(CA5,N2) / d(N2,C4) / d(N2,C6) / d(N2,CA3) / d(N2,O3) / d(O4,H2): unit not given beside the values;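 for Ligand-pharmacophore element distance, pharmacophore element C2: distance from averaged pharmacophore element to bound ligand; missing value means element absent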;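 for Ligand-pharmacophore element distance, pharmacophore element C3: distance from averaged pharmacophore element to bound ligand; missing value means element absent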;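 for Ligand-pharmacophore element distance, pharmacophore element C4: distance from averaged pharmacophore element to bound ligand; missing value means element absent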;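 for Ligand-pharmacophore element distance, pharmacophore element C5: distance from averaged pharmacophore element to bound ligand; missing value means element absent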
MASP-2 CCP2-SP, sequence (O00187 445-686): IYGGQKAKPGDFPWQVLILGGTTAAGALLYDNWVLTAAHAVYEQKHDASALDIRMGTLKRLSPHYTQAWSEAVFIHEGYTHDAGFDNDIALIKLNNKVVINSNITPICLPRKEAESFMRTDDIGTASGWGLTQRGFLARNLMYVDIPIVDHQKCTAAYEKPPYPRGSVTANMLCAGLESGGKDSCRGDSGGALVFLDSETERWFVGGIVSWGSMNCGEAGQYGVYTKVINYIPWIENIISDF
MASP-2 CCP2-SP, sequence (O00187 364-432 partner): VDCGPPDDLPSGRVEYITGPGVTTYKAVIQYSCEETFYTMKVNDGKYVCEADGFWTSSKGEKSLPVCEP
Method in brief: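 First, CCP2-SP constructs with or without a 6His tag are produced in E. coli. Crystals are then soaked once or twice with inhibitor, cryoprotected in 20% glycerol or frozen directly, and diffracted at synchrotron beamlines. Phasing uses molecular replacement with parts of 1Q3X.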

human α-thrombin = human α-thrombin (Homo sapiens (Human), UniProt P00734); experiment: Enzymatic Assay for Thrombin (Boc-VPR-AMC); format: biochemical
[1] = Table A5-1 pharmacophore: distance between elements, S2/S1 region
[2] = Table A5-2 pharmacophore distance, S3/S4 region
[3] = Table A7-1, between pharmacophore elements of the bound compound
[4] = Table A8-6, nearest protein atom in cell to the left

MASP-2 (CCP1-CCP2-SP), sequence (O00187 445-686): as the sequence (O00187 445-686) above

C[C@H](NC(=O)[C@H](N)CCc1ccccc1)C(=O)NCc1ccc(C(=N)N)cc1 [compound 1024]
Ki (MASP-2 (CCP1-CCP2-SP)): < 0.5 µM | H-bond distance to MASP-2 ASP 627 atom OD1 (MASP-2 CCP2-SP; Table A1 (H-Bonds), ASP 627 OD1): 2.74 | H-bond distance to MASP-2 GLY 656 atom N (MASP-2 CCP2-SP; Table A1 (H-Bonds), GLY 656 N): 3.06 | H-bond distance to MASP-2 SER 628 atom O (MASP-2 CCP2-SP; Table A1 (H-Bonds), SER 628 O): 2.79 | H-bond distance to MASP-2 SER 654 atom O (MASP-2 CCP2-SP; Table A1 (H-Bonds), SER 654 O): 2.86 | H-bond distance to MASP-2 SER 657 atom O (MASP-2 CCP2-SP; Table A1 (H-Bonds), SER 657 O): 2.94 | van der Waals contact distance, MASP-2 HIS 483 atom CD2 (MASP-2 CCP2-SP; Table A2-1): 3.39 | van der Waals contact distance, MASP-2 TYR 607 atom CD1 (MASP-2 CCP2-SP; Table A2-4): 3.9 | van der Waals contact distance, MASP-2 amino acid atom to compound atom (MASP-2 CCP2-SP; Table A2-7 continued: CYS 629 (CA)): 3.75 | van der Waals contact distance GLY 656 atom C (MASP-2 CCP2-SP; Table A2-13, MASP-2 GLY 656 C): 3.53 | van der Waals contact distance TRP 655 atom CZ3 (MASP-2 CCP2-SP; Table A2-13, MASP-2 TRP 655 CZ3): 3.86 | van der Waals contact distance TRP 655 atom N (MASP-2 CCP2-SP; Table A2-13, MASP-2 TRP 655 N): 3.78 | van der Waals contact distance TRP 655 atom O (MASP-2 CCP2-SP; Table A2-13, MASP-2 TRP 655 O): 3.59 | van der Waals contact distance SER 657 atom C (MASP-2 CCP2-SP; Table A2-14, MASP-2 SER 657 C, columns c12-c13 (inferred)): 3.77 | Ligand-pharmacophore element distance, pharmacophore element C2 (MASP-2 CCP2-SP; Table A4-1, element C2): 0 | Ligand-pharmacophore element distance, pharmacophore element C3 (MASP-2 CCP2-SP; Table A4-1, element C3): 0 | Ligand-pharmacophore element distance, pharmacophore element C4 (MASP-2 CCP2-SP; Table A4-1, element C4): 0 | Ligand-pharmacophore element distance, pharmacophore element C5 (MASP-2 CCP2-SP; Table A4-1, element C5): 0 | Ligand-pharmacophore element distance, pharmacophore element C6 (MASP-2 CCP2-SP; Table A4-1, element C6): 0 | Ligand-pharmacophore element distance, pharmacophore element C7 (MASP-2 CCP2-SP; Table A4-1, element C7): 0 | Ligand-pharmacophore element distance, pharmacophore element CA1 (MASP-2 CCP2-SP; Table A4-1, element CA1): 0.4 | Ligand-pharmacophore element distance, pharmacophore element CA2 (MASP-2 CCP2-SP; Table A4-1, element CA2): 0.33 | Ligand-pharmacophore element distance, pharmacophore element CA3 (MASP-2 CCP2-SP; Table A4-1, element CA3): 0 | Ligand-pharmacophore element distance, pharmacophore element CA4 (MASP-2 CCP2-SP; Table A4-1, element CA4): 0 | Ligand-pharmacophore element distance, pharmacophore element CA5 (MASP-2 CCP2-SP; Table A4-1, element CA5): 0 | Ligand-pharmacophore element distance, pharmacophore element CA6 (MASP-2 CCP2-SP; Table A4-1, element CA6): 0 | Ligand-pharmacophore element distance, pharmacophore element H1 (MASP-2 CCP2-SP; Table A4-2, element H1): 0 | Ligand-pharmacophore element distance, pharmacophore element H2 (MASP-2 CCP2-SP; Table A4-2, element H2): 0 | Ligand-pharmacophore element distance, pharmacophore element H3 (MASP-2 CCP2-SP; Table A4-2, element H3): 4.93 | Ligand-pharmacophore element distance, pharmacophore element H4 (MASP-2 CCP2-SP; Table A4-2, element H4): 3.21 | Ligand-pharmacophore element distance, pharmacophore element N1 (MASP-2 CCP2-SP; Table A4-2, element N1): 1.74 | Ligand-pharmacophore element distance, pharmacophore element N2 (MASP-2 CCP2-SP; Table A4-2, element N2): 0.59 | Ligand-pharmacophore element distance, pharmacophore element O1 (MASP-2 CCP2-SP; Table A4-2, element O1): 0.4 | Ligand-pharmacophore element distance, pharmacophore element O2 (MASP-2 CCP2-SP; Table A4-2, element O2): 0.4 | Ligand-pharmacophore element distance, pharmacophore element O3 (MASP-2 CCP2-SP; Table A4-2, element O3): 0 | Ligand-pharmacophore element distance, pharmacophore element O4 (MASP-2 CCP2-SP; Table A4-2, element O4): 0 | d(CA1,N1) (MASP-2 CCP2-SP; [1]): 3.55 | d(CA1,O1) (MASP-2 CCP2-SP; [1]): 4.37 | d(CA1,O2) (MASP-2 CCP2-SP; [1]): 4.23 | d(H4,O1) (MASP-2 CCP2-SP; [1]): 3.99 | d(H4,O2) (MASP-2 CCP2-SP; [1]): 3.27 | d(O1,O2) (MASP-2 CCP2-SP; [1]): 3.23 | d(N2,CA2) (MASP-2 CCP2-SP; [2]): 6.19 | d(O2,H3) (MASP-2 CCP2-SP; [2]): 5.45 | d(O2,N2) (MASP-2 CCP2-SP; [2]): 2.78 | a(CA1, O1, O2) (MASP-2 CCP2-SP; Table A6-1 pharmacophore angle): 109.78 | a(O1, O2, H4) (MASP-2 CCP2-SP; Table A6-1 pharmacophore angle): 128.26 | A(N1, CA1, O1) a) (MASP-2 CCP2-SP; Table A6-1 pharmacophore angle, all compounds with protonatable center N1 except Methyl-amino-pyridine): 163.32 | a(O1, O2, H3) (MASP-2 CCP2-SP; Table A6-2 pharmacophore angle): 151.79 | a(O1, O2, N2) (MASP-2 CCP2-SP; Table A6-2 pharmacophore angle): 136.56 | a(O2, N2, CA2) (MASP-2 CCP2-SP; Table A6-2 pharmacophore angle): 154.55 | Pharmacophore torsion angle a(H4, O1, O2, H3) (MASP-2 CCP2-SP; [3]): 44.69 | Pharmacophore torsion angle a(H4, O1, O2, N2) (MASP-2 CCP2-SP; [3]): 125.09 | Pharmacophore torsion angle a(N1, CA1, O2, H4) (MASP-2 CCP2-SP; [3]): −97.21 | Pharmacophore torsion angle a(O1, H4, O2, CA1) (MASP-2 CCP2-SP; [3]): −63.40 | Pharmacophore torsion angle a(O1, O2, N2, CA2) (MASP-2 CCP2-SP; Table A7-2, between pharmacophore elements of the bound compound): 139.71 | Pharmacophore protein distance to MET_658 (first MET_658 column) (MASP-2 CCP2-SP; Table A8-6, 6th residue column, nearest protein atom in cell to the left): 1.94 | Pharmacophore protein distance to MET_658 (second MET_658 column) (MASP-2 CCP2-SP; Table A8-6, 9th residue column, nearest protein atom in cell to the left): 3.26 | Pharmacophore protein distance to GLY_528 (MASP-2 CCP2-SP; [4]): 3.60 | Pharmacophore protein distance to PHE_529 (MASP-2 CCP2-SP; [4]): 3.20 | Pharmacophore protein distance to PRO_608 (MASP-2 CCP2-SP; [4]): 3.95 | Pharmacophore protein distance to SER_611 (MASP-2 CCP2-SP; [4]): 2.54 | Pharmacophore protein distance to TRP_655 (MASP-2 CCP2-SP; Table A8-6, pharmacophore elements C6, CA3, O3, H1, nearest protein atom in cell to the left): 3.53 | Ki (human α-thrombin): < 0.5 µM
